Assay: Solubility in distilled water or 1% SDS
Format: physicochemical
Procedure: 10 mg of weighed Crude extract I obtained in Example 1 was added to 1 ml of distilled water or 1 ml of 1% sodium dodecyl sulfate (SDS) aqueous solution and was stirred vigorously. The solution was centrifuged at 5,000×g for 2 min and the concentrations of conophylline and conophyllidine in the supernatant were measured.

Structure (SMILES): CC[C@@]12C=CCN3CC[C@]4(C(=C(C(=O)OC)C1)Nc1cc5c(cc14)[C@H]1[C@@H](O5)[C@H](O)[C@]4(CC)CC(C(=O)OC)=C5Nc6c(cc(O)c(OC)c6OC)[C@@]56CCN1[C@H]46)[C@H]32 (stereo in doubt) [Conophyllidine, conophyllidine]
- concentration in supernatant (10 mg Crude extract I in 1 ml 1% SDS): 2970 ng/mL
- concentration in supernatant (10 mg Crude extract I in 1 ml Distilled water): 680 ng/mL
